Assay type in all cases: functional
Assay [1] relates to Klebsiella pneumoniae. Kind of assay: Bactericidal activity against Klebsiella pneumoniae J 14368/08 after 48 hrs by microdilution broth method. Conditions: J 14368/08, 48 h, read-out: MBC>99.9. (In general: Dilution methods test growth across graded concentrations, often in twofold steps.)
Another assay has as its system Lichtheimia corymbifera. As to the kind of experiment: Fungicidal activity against Absidia corymbifera 272 after 48 hrs by modified standard CSLI M27-A2 method. To be noted: Lichtheimia corymbifera, 272, 48 h.
The next assay relates to Candida albicans. Kind of assay: Fungicidal activity against Candida albicans ATCC 44859 after 48 hrs by modified standard CSLI M27-A2 method. To be noted: ATCC 44859, 48 h.
For assay [2], the system named is Staphylococcus aureus. As to the kind of experiment: Bactericidal activity against Staphylococcus aureus CCM 4516/08 after 48 hrs by microdilution broth method. Conditions: CCM 4516/08, 48 h, read-out: MBC>99.9.
Assay [3] deals with Staphylococcus epidermidis. As to the kind of experiment: Bactericidal activity against Staphylococcus epidermidis H 6966/08 after 48 hrs by microdilution broth method. To be noted: H 6966/08, 48 h, read-out: MBC>99.9.
In a further assay the test system is Trichosporon asahii. Kind of assay: Fungicidal activity against Trichosporon asahii 1188 after 48 hrs by modified standard CSLI M27-A2 method. To be noted: Trichosporon asahii, 1188, 48 h.
In the next assay the test system is Enterococcus sp. As to the kind of experiment: Bactericidal activity against Enterococcus sp. J 14365/08 after 48 hrs by microdilution broth method. Conditions: J 14365/08, 48 h, read-out: MBC>99.9.
Assay [4] concerns Staphylococcus aureus. As to the kind of experiment: Bactericidal activity against Staphylococcus aureus H 5996/08 after 48 hrs by microdilution broth method. Conditions: H 5996/08, 48 h, read-out: MBC>99.9.
The subject of another assay is Escherichia coli. As to the kind of experiment: Bactericidal activity against Escherichia coli CCM 4517 after 48 hrs by microdilution broth method. To be noted: CCM 4517, 48 h, read-out: MBC>99.9.
A further assay concerns Candida tropicalis. As to the kind of experiment: Fungicidal activity against Candida tropicalis 156 after 48 hrs by modified standard CSLI M27-A2 method. To be noted: Candida tropicalis, 156, 48 h.
The next assay has as its system Aspergillus fumigatus. As to the kind of experiment: Fungicidal activity against Aspergillus fumigatus 231 after 48 hrs by modified standard CSLI M27-A2 method. To be noted: Aspergillus fumigatus, 231, 48 h.
The next assay has as its system Nakaseomyces glabratus. As to the kind of experiment: Fungicidal activity against Candida glabrata 20/I after 48 hrs by modified standard CSLI M27-A2 method.
Another assay deals with Pseudomonas aeruginosa. Kind of assay: Bactericidal activity against Pseudomonas aeruginosa CCM 1961 after 120 hrs by microdilution broth method. To be noted: CCM 1961, 120 h, read-out: MBC>99.9.
For another assay, the system named is Pichia kudriavzevii. As to the kind of experiment: Fungicidal activity against Candida krusei E28 after 48 hrs by modified standard CSLI M27-A2 method. To be noted: E28, 48 h.
Assay [5] deals with Trichophyton mentagrophytes. Kind of assay: Fungicidal activity against Trichophyton mentagrophytes 445 after 120 hrs by modified standard CSLI M27-A2 method. To be noted: Trichophyton mentagrophytes, 445, 120 h.
Assay [6] concerns Klebsiella pneumoniae. As to the kind of experiment: Bactericidal activity against Klebsiella pneumoniae D 11750/08 after 24 hrs by microdilution broth method. To be noted: D 11750/08, 24 h, read-out: MBC>99.9.

On to `CCCCCCCCCCCCCCCC[n+]1ccccc1` [CETYLPYRIDINIUM BROMIDE], for which the MBC with Klebsiella pneumoniae [1] is 7.81 µM; with Staphylococcus aureus [2], 3.91 µM; in [3], 3.91 µM; in the assay on Enterococcus sp., 7.81 µM; with Staphylococcus aureus [4] it was 3.91 µM; in the assay on Escherichia coli it was 7.81 µM. For the same compound, the results for the MBC in the assay on Pseudomonas aeruginosa and with Klebsiella pneumoniae [6] were 125 µM and 15.6 µM, respectively. The MFC against Lichtheimia corymbifera turned out to be 62.5 µM; with Candida albicans, 15.6 µM; in the assay with Trichosporon asahii, 7.81 µM; in the assay on Candida tropicalis, 3.9 µM; in the assay with Aspergillus fumigatus it was 15.6 µM; against Nakaseomyces glabratus, 3.91 µM. In addition, the values for the minimal fungicidal concentration (MFC) (against Pichia kudriavzevii; in [5]) were 1.95 µM and 7.81 µM, respectively.

One may read the MBC as the smallest concentration meeting the test's criterion for killing. What is called MFC is the smallest concentration meeting the test's criterion for killing the fungus.

These data come from ChEMBL document CHEMBL3352489, “6-Hydroxyquinolinium salts differing in the length of alkyl side-chain: synthesis and antimicrobial activity” (Bioorg Med Chem Lett, 2014).
